From PubChem BioAssay (NCI)
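48-hour exposure; five concentrations; linearly interpolated endpoints. At the TGI there is no net growth.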

Legend:
Assay in all cases: growth of human tumour cells (NCI), 48 h
UACC-257 melanoma = tested on: UACC-257 melanoma
MDA-MB-231 breast = tested on: MDA-MB-231 breast
M14 melanoma = tested on: M14 melanoma
RXF 393 renal = tested on: RXF 393 renal
MDA-MB-435 = tested on: MDA-MB-435
SF-539 CNS = tested on: SF-539 CNS
NCI-H23 lung = tested on: NCI-H23 lung
RPMI-8226 leukemia = tested on: RPMI-8226 leukemia
SF-295 CNS = tested on: SF-295 CNS
MDA-N = tested on: MDA-N
EKVX NSCLC = tested on: EKVX NSCLC
A498 renal = tested on: A498 renal
KM12 colon = tested on: KM12 colon
HOP-92 NSCLC = tested on: HOP-92 NSCLC
A549 NSCLC = tested on: A549 NSCLC
SR leukemia = tested on: SR leukemia
HCT-15 colon = tested on: HCT-15 colon
786-0 renal = tested on: 786-0 renal
CCRF-CEM leukemia = tested on: CCRF-CEM leukemia
SK-MEL-2 melanoma = tested on: SK-MEL-2 melanoma
NCI/ADR-RES ovarian = tested on: NCI/ADR-RES ovarian
SF-268 CNS = tested on: SF-268 CNS
OVCAR-8 ovarian = tested on: OVCAR-8 ovarian
COLO 205 colon = tested on: COLO 205 colon
HOP-62 NSCLC = tested on: HOP-62 NSCLC
OVCAR-4 ovarian = tested on: OVCAR-4 ovarian
UO-31 renal = tested on: UO-31 renal
LOX IMVI melanoma = tested on: LOX IMVI melanoma
K-562 leukemia = tested on: K-562 leukemia
SW-620 colon = tested on: SW-620 colon
OVCAR-5 ovarian = tested on: OVCAR-5 ovarian
ACHN renal = tested on: ACHN renal
NCI-H226 lung = tested on: NCI-H226 lung
CAKI-1 renal = tested on: CAKI-1 renal
HCT-116 colon = tested on: HCT-116 colon
SNB-19 CNS = tested on: SNB-19 CNS
DU-145 prostate = tested on: DU-145 prostate
HT29 colon = tested on: HT29 colon
IGROV1 ovarian = tested on: IGROV1 ovarian
OVCAR-3 ovarian = tested on: OVCAR-3 ovarian
PC-3 prostate = tested on: PC-3 prostate
NCI-H460 lung = tested on: NCI-H460 lung
MOLT-4 leukemia = tested on: MOLT-4 leukemia
BT-549 breast = tested on: BT-549 breast
MCF7 breast = tested on: MCF7 breast
SK-OV-3 ovarian = tested on: SK-OV-3 ovarian
T-47D breast = tested on: T-47D breast
MALME-3M melanoma = tested on: MALME-3M melanoma
HL-60(TB) leukemia = tested on: HL-60(TB) leukemia
TK-10 renal = tested on: TK-10 renal
HS 578T breast = tested on: HS 578T breast
SNB-75 CNS = tested on: SNB-75 CNS
SN12C renal = tested on: SN12C renal
SK-MEL-5 melanoma = tested on: SK-MEL-5 melanoma
NCI-H522 lung = tested on: NCI-H522 lung
U251 CNS = tested on: U251 CNS
SK-MEL-28 melanoma = tested on: SK-MEL-28 melanoma
HCC-2998 colon = tested on: HCC-2998 colon
UACC-62 melanoma = tested on: UACC-62 melanoma

S=c1[nH]c2ccc(I)cc2c(=S)n1Cc1ccccc1
TGI (UACC-257 melanoma): 7.34 µM | TGI (MDA-MB-231 breast): 20.4 µM | TGI (M14 melanoma): 31.6 µM | TGI (RXF 393 renal): 9.21 µM | TGI (MDA-MB-435): > 100 µM | TGI (SF-539 CNS): 37.2 µM | TGI (NCI-H23 lung): 9.61 µM | TGI (RPMI-8226 leukemia): 12.1 µM | TGI (SF-295 CNS): 11.5 µM | TGI (MDA-N): 56.9 µM | TGI (EKVX NSCLC): 23.7 µM | TGI (A498 renal): 55.4 µM | TGI (KM12 colon): 50.7 µM | TGI (HOP-92 NSCLC): 9.34 µM | TGI (A549 NSCLC): > 100 µM | TGI (SR leukemia): 14.9 µM | TGI (HCT-15 colon): 23.3 µM | TGI (786-0 renal): 21.4 µM | TGI (CCRF-CEM leukemia): 6.06 µM | TGI (SK-MEL-2 melanoma): 18 µM | TGI (NCI/ADR-RES ovarian): 25.5 µM | TGI (SF-268 CNS): 25.3 µM | TGI (OVCAR-8 ovarian): 53.6 µM | TGI (COLO 205 colon): 25.2 µM | TGI (HOP-62 NSCLC): 22.8 µM | TGI (OVCAR-4 ovarian): > 100 µM | TGI (UO-31 renal): 24.8 µM | TGI (LOX IMVI melanoma): 16 µM | TGI (K-562 leukemia): 14.6 µM | TGI (SW-620 colon): 14.7 µM | TGI (OVCAR-5 ovarian): 43.9 µM | TGI (ACHN renal): 58.7 µM | TGI (NCI-H226 lung): > 100 µM | TGI (CAKI-1 renal): > 100 µM | TGI (HCT-116 colon): 13.2 µM | TGI (SNB-19 CNS): 48.6 µM | TGI (DU-145 prostate): 11.9 µM | TGI (HT29 colon): 38.9 µM | TGI (IGROV1 ovarian): 27.6 µM | TGI (OVCAR-3 ovarian): 8.07 µM | TGI (PC-3 prostate): 15.5 µM | TGI (NCI-H460 lung): 16.3 µM | TGI (MOLT-4 leukemia): 13.4 µM | TGI (BT-549 breast): 27 µM | TGI (MCF7 breast): > 100 µM | TGI (SK-OV-3 ovarian): > 100 µM | TGI (T-47D breast): 5.5 µM | TGI (MALME-3M melanoma): 33.6 µM | TGI (HL-60(TB) leukemia): 5.96 µM | TGI (TK-10 renal): 30.8 µM | TGI (HS 578T breast): > 100 µM | TGI (SNB-75 CNS): 13.7 µM | TGI (SN12C renal): 13.4 µM | TGI (SK-MEL-5 melanoma): 13.2 µM | TGI (NCI-H522 lung): 16.5 µM | TGI (U251 CNS): 12.9 µM | TGI (SK-MEL-28 melanoma): > 100 µM

C=C1CN(C2=NCCO2)C1
TGI (UACC-257 melanoma): > 100 µM | TGI (MDA-MB-231 breast): > 100 µM | TGI (M14 melanoma): > 100 µM | TGI (RXF 393 renal): > 100 µM | TGI (MDA-MB-435): > 100 µM | TGI (SF-539 CNS): > 100 µM | TGI (NCI-H23 lung): > 100 µM | TGI (RPMI-8226 leukemia): > 100 µM | TGI (SF-295 CNS): > 100 µM | TGI (MDA-N): > 100 µM | TGI (EKVX NSCLC): > 100 µM | TGI (KM12 colon): > 100 µM | TGI (HOP-92 NSCLC): > 100 µM | TGI (A549 NSCLC): > 100 µM | TGI (HCC-2998 colon): > 100 µM | TGI (SR leukemia): > 100 µM | TGI (HCT-15 colon): > 100 µM | TGI (786-0 renal): > 100 µM | TGI (CCRF-CEM leukemia): > 100 µM | TGI (SK-MEL-2 melanoma): > 100 µM | TGI (NCI/ADR-RES ovarian): > 100 µM | TGI (SF-268 CNS): > 100 µM | TGI (OVCAR-8 ovarian): > 100 µM | TGI (COLO 205 colon): > 100 µM | TGI (HOP-62 NSCLC): > 100 µM | TGI (OVCAR-4 ovarian): > 100 µM | TGI (UO-31 renal): > 100 µM | TGI (LOX IMVI melanoma): > 100 µM | TGI (K-562 leukemia): > 100 µM | TGI (SW-620 colon): > 100 µM | TGI (OVCAR-5 ovarian): > 100 µM | TGI (ACHN renal): > 100 µM | TGI (NCI-H226 lung): > 100 µM | TGI (CAKI-1 renal): > 100 µM | TGI (HCT-116 colon): > 100 µM | TGI (SNB-19 CNS): > 100 µM | TGI (DU-145 prostate): > 100 µM | TGI (HT29 colon): > 100 µM | TGI (IGROV1 ovarian): > 100 µM | TGI (OVCAR-3 ovarian): > 100 µM | TGI (PC-3 prostate): > 100 µM | TGI (NCI-H460 lung): > 100 µM | TGI (MOLT-4 leukemia): > 100 µM | TGI (BT-549 breast): > 100 µM | TGI (MCF7 breast): > 100 µM | TGI (T-47D breast): > 100 µM | TGI (UACC-62 melanoma): > 100 µM | TGI (MALME-3M melanoma): > 100 µM | TGI (HL-60(TB) leukemia): > 100 µM | TGI (TK-10 renal): > 100 µM | TGI (HS 578T breast): > 100 µM | TGI (SNB-75 CNS): > 100 µM | TGI (SN12C renal): > 100 µM | TGI (SK-MEL-5 melanoma): > 100 µM | TGI (SK-MEL-28 melanoma): > 100 µM

CSc1scc2c1/C(=N/NC(N)=O)CCC2
TGI (UACC-257 melanoma): > 100 µM | TGI (MDA-MB-231 breast): > 100 µM | TGI (M14 melanoma): > 100 µM | TGI (MDA-MB-435): > 100 µM | TGI (SF-539 CNS): > 100 µM | TGI (NCI-H23 lung): > 100 µM | TGI (RPMI-8226 leukemia): > 100 µM | TGI (SF-295 CNS): > 100 µM | TGI (MDA-N): > 100 µM | TGI (A498 renal): > 100 µM | TGI (KM12 colon): > 100 µM | TGI (HOP-92 NSCLC): 90 µM | TGI (A549 NSCLC): > 100 µM | TGI (HCC-2998 colon): > 100 µM | TGI (HCT-15 colon): > 100 µM | TGI (786-0 renal): > 100 µM | TGI (CCRF-CEM leukemia): > 100 µM | TGI (SK-MEL-2 melanoma): > 100 µM | TGI (NCI/ADR-RES ovarian): 73.4 µM | TGI (SF-268 CNS): > 100 µM | TGI (OVCAR-8 ovarian): > 100 µM | TGI (COLO 205 colon): > 100 µM | TGI (HOP-62 NSCLC): > 100 µM | TGI (OVCAR-4 ovarian): > 100 µM | TGI (UO-31 renal): > 100 µM | TGI (LOX IMVI melanoma): > 100 µM | TGI (K-562 leukemia): > 100 µM | TGI (SW-620 colon): > 100 µM | TGI (OVCAR-5 ovarian): > 100 µM | TGI (ACHN renal): > 100 µM | TGI (NCI-H226 lung): > 100 µM | TGI (CAKI-1 renal): > 100 µM | TGI (HCT-116 colon): > 100 µM | TGI (SNB-19 CNS): > 100 µM | TGI (DU-145 prostate): > 100 µM | TGI (HT29 colon): > 100 µM | TGI (OVCAR-3 ovarian): > 100 µM | TGI (PC-3 prostate): > 100 µM | TGI (NCI-H460 lung): > 100 µM | TGI (MOLT-4 leukemia): > 100 µM | TGI (BT-549 breast): > 100 µM | TGI (MCF7 breast): > 100 µM | TGI (SK-OV-3 ovarian): > 100 µM | TGI (T-47D breast): > 100 µM | TGI (UACC-62 melanoma): > 100 µM | TGI (TK-10 renal): > 100 µM | TGI (HS 578T breast): > 100 µM | TGI (SNB-75 CNS): > 100 µM | TGI (SN12C renal): > 100 µM | TGI (SK-MEL-5 melanoma): > 100 µM | TGI (U251 CNS): > 100 µM | TGI (SK-MEL-28 melanoma): > 100 µM
